From PMC8982266 (Journal of medicinal chemistry, 2015) come the findings set out here.

In series [1] the test system is Pseudomonas aeruginosa. In words: MIC micro broth dilution assay. Type of series: cell-based. The settings on record: for MIC: P. aeruginosa, purified compounds; for concentration inhibiting growth of 90% of isolates: panel of clinical P. aeruginosa isolates.
The subject of series [2] is Staphylococcus aureus biofilm. In words: Minimum biofilm eradication concentration. Type of series: cell-based. The settings on record: S. aureus biofilm; purified compounds.
Series [3] deals with P. aeruginosa clinical isolates. Kind of series: Growth with efflux inhibitor reserpine. It counts as cell-based, Pseudomonas aeruginosa. Conditions: P. aeruginosa isolate 1420.
In series [4] the test system is S. aureus. Kind of series: Serial passage resistance assay. It counts as cell-based, Staphylococcus aureus. The settings on record: 8 passages, concentration doubled each day.
The subject of series [5] is Staphylococcus aureus (USA300 strain FPR3757). Kind of series: Murine model of lethal peritonitis. Type of series: in vivo. Conditions: 2xMIC, I.M., 1h post-infection; six mice per group.
Series [6] concerns human A549 cells. In words: Cytotoxicity MTT assay. Type of series: cell-based. Conditions: for IC50: read-out: IC50 A549, toxicity towards human A549 cells, MTT, 48 hours.
The test system of series [7] is Staphylococcus aureus. In words: MIC micro broth dilution assay. The settings on record: S. aureus; purified compounds. Type of series: cell-based.
The test system of series [8] is ESKAPE pathogens. In words: MIC micro broth dilution assay, all six species together. It counts as cell-based.
The test system of series [9] is E. cloacae. In words: MIC micro broth dilution assay. Type of series: cell-based. The settings on record: for MIC: E. cloacae, purified compounds; for concentration inhibiting growth of 90% of isolates: panel of clinical E. cloacae isolates.
Series [10] relates to Acinetobacter baumannii. In words: MIC micro broth dilution assay. Type of series: cell-based. Conditions: A. baumannii; purified compounds.
Series [11] concerns E. cloacae biofilm. In words: Minimum biofilm eradication concentration. It counts as cell-based. The settings on record: purified compounds.
Series [12] has as its system Enterococcus faecium biofilm. Kind of series: Minimum biofilm eradication concentration. It counts as cell-based. The settings on record: E. faecium biofilm; purified compounds.
In series [13] the test system is Klebsiella pneumoniae biofilm. Kind of series: Minimum biofilm eradication concentration. It counts as cell-based. The settings on record: K. pneumoniae biofilm; purified compounds.
The test system of series [14] is Acinetobacter baumannii biofilm. In words: Minimum biofilm eradication concentration. It counts as cell-based. Conditions: A. baumannii biofilm; purified compounds.
The test system of series [15] is Klebsiella pneumoniae. Kind of series: MIC micro broth dilution assay. Type of series: cell-based. The settings on record: for MIC: K. pneumoniae, purified compounds; for concentration inhibiting growth of 90% of isolates: panel of clinical K. pneumoniae isolates.
Series [16] concerns Enterococcus faecium. Kind of series: MIC micro broth dilution assay. Type of series: cell-based. The settings on record: E. faecium; purified compounds.
For series [17], the system named is Pseudomonas aeruginosa biofilm. In words: Minimum biofilm eradication concentration. Type of series: cell-based. The settings on record: P. aeruginosa biofilm; purified compounds.
The subject of series [18] is human red blood cells (hRBCs).
Series [19] has as its system MRSA cells. In words: Time kill assay. It counts as cell-based, Staphylococcus aureus.
The test system of series [20] is E. cloacae. Type of series: cell-based. The settings on record: 8 passages.
The subject of series [21] is K. pneumoniae. Kind of series: Serial passage resistance assay. Type of series: cell-based, Klebsiella pneumoniae. Conditions: 8 passages.
Series [22] relates to E. cloacae strain 1446. Kind of series: Growth with efflux inhibitor reserpine. It counts as cell-based. The settings on record: with 100 μM of reserpine.
In series [23] the test system is A. baumannii. In words: Serial passage resistance assay. It counts as cell-based, Acinetobacter baumannii. The settings on record: 8 passages.
Series [24] concerns P. aeruginosa. It counts as cell-based, Pseudomonas aeruginosa. The settings on record: 8 passages.
Series [25] deals with K. pneumoniae strain 1441. In words: Growth with efflux inhibitor reserpine. It counts as cell-based, Klebsiella pneumoniae. Conditions: with 100 μM of reserpine.

As to “(S)-4-butyl-3-hexyl-1-(4-((S)-2-imino-3-(3-(trifluoromethyl)phenethyl)imidazolidin-4-yl)butyl)imidazolidin-2-imine [compound 1]”, the minimal inhibitory concentration (MIC) in series [1], in [7], in series [9], in series [10], in series [15] and in [16] was 1.6 µM each time. The “concentration inhibiting growth of 90% of isolates” value in series [1], in [9] and in series [15] was 10 µM in each case. Further, the MBEC50 in [2] came to 14 µM; in series [11], 13 µM; in series [12], 39 µM; in [13], 7.0 µM; in series [14], 15 µM; in series [17], 20 µM. In addition, in series [3] (2 μM compound + 100 μM reserpine), the “effect on growth, compound combined with reserpine” value was “strongly inhibited growth”. Besides, in series [3] (2 μM of compound, no reserpine), the “effect on growth, compound alone” value is “no effect”. Moreover, in [4], the “fold increase in MIC after serial passage” value (shortened to “fold increase in MIC”) is on record as “two-fold”. The “survival of infected mice over 5 days” value in series [5] is “all mice survived”. Also, the concentration for half-maximal inhibition (IC50) in series [6] is 164 µM. Further, the “concentration with antibacterial activity against all 6 species” value (from here on “concentration … against all 6 species”) in series [8] is below 2 µM.

For `COC(=O)[C@H]1[C@H]2C[C@@H]3c4[nH]c5cc(OC)ccc5c4CCN3C[C@H]2C[C@@H](OC(=O)c2cc(OC)c(OC)c(OC)c2)[C@@H]1OC` [reserpine, reference compound], in series [3] (100 μM of reserpine), the “effect on growth, reserpine alone” value is “no effect”.

Turning to Triton-X100, in series [18], the “hemolysis, positive control” value came to 100%.

As for “benzalkonium chloride [reference compound]”, the “cells recovered / surviving exposure (optical density relative to start)” value in [19] (MRSA, 2 h, 2.0% SDS, 0.001% benzalkonium chloride, 0.001% benzethonium chloride) is 29%.

Consider “(S)-4-(cyclohexylmethyl)-3-hexyl-1-(4-((S)-2-imino-3-(3-(trifluoromethyl)phenethyl)imidazolidin-4-yl)butyl)imidazolidin-2-imine [compound 7]”, for which the minimum inhibitory concentration (MIC) in [1], in series [7], in series [9], in series [10], in [15] and in series [16] was 1.5 µM each time. The “concentration inhibiting growth of 90% of isolates” value in series [1] came out at 10 µM; in series [9], 2 µM; in series [15], 5 µM. The MBEC50 in series [2] is 4.4 µM; in series [11], 15 µM; in series [12], 26 µM; in series [13], 4.8 µM; in [14] it was 13 µM; in [17], 46 µM. The “fold increase in MIC” value in [20] is given as at most 8 fold; in series [4] it was “four-fold”; in series [21], at most 8 fold; in [23] it was at most 8 fold. Further, the “survival of infected mice over 5 days” value in series [5] is 1 mouse lost on each of days 2 and 4. The A549 recovery is recorded as at least 33% in [6] (above 45 μM, at concentrations up to 225 μM) and above 60% in series [6] (at 45 μM). Besides, the IC50 in [6] was 66 µM. Besides, the “effect on growth, compound in combination with reserpine” value in series [22] is reported as “complete inhibition of growth”. Besides, the “concentration … against all 6 species” value in series [8] was below 2 µM.

For “lysostaphin: a S. aureus specific lytic agent, positive control”, the “lysis of MRSA cells” value in series [19] (within 10 minutes of exposure, 4 μM lysostaphin) is listed as above 50%.

As to “(S)-1-(4-((S)-3-(4-cyclohexylbutyl)-2-iminoimidazolidin-4-yl)butyl)-4-(cyclohexylmethyl)-3-hexylimidazolidin-2-imine [compound 16]”, the minimal inhibitory concentration (MIC) in [1], in [7], in series [9], in series [10], in series [15] and in [16] was 1.6 µM in each case. Besides, the “concentration inhibiting growth of 90% of isolates” value was determined as 5 µM in [1], 2 µM in series [9] and 5 µM in series [15]. For the same compound, the MBEC50 in series [2] is 7.6 µM; in series [11] it was 13 µM; in [13], 6.3 µM; in series [14] it was 14 µM; in series [17] it was 34 µM. For the same compound, the “fold increase in MIC” value in [20] is at most 8 fold; in [4] it was 16 fold; in series [21], at most 8 fold; in series [23], at most 8 fold; in [24] it was 8 fold. For the same compound, the “survival of infected mice over 5 days” value in series [5] was “only a single mouse succumbing to infection after the first day”. For the same compound, the A549 recovery in series [6] (at concentrations up to 100 μM) was above 65%. In series [6], the IC50 is above 225 µM. Also, the “concentration … against all 6 species” value in series [8] is below 2 µM. The “effect on growth, compound in combination with reserpine” value in series [25] is recorded as “complete inhibition of growth”.

Turning to `CCCC[C@H]1CN(CCCC[C@H]2CNC(=N)N2CCc2cccc(C(F)(F)F)c2)C(=N)N1CCCCC1CCCCC1` [compound 2, (S)-4-butyl-3-(4-cyclohexylbutyl)-1-(4-((S)-2-imino-3-(3-(trifluoromethyl)phenethyl)imidazolidin-4-yl)butyl)imidazolidin-2-imine], the “concentration inhibiting growth of 90% of isolates” value in series [1], in series [9] and in series [15] was 5 µM each time. Also, the “fold increase in MIC” value in series [4] is “two-fold”. Besides, the “survival of infected mice over 5 days” value in series [5] is “only a single mouse succumbing to infection after the first day”. Further, the “concentration … against all 6 species” value in series [8] was below 2 µM.
